These are literature values, as cited in PMC7275090, “Mode of action of teixobactins in cellular membranes” (Nature Communications, 2020).

This series has as its system bacteria. Particulars: cited from earlier work.

For Teixobactin, the “antibacterial activity” value is listed as “excellent activity”.
